Structures are written as SMILES.

Common to all, as to assay type: cell-based
For assay [1], the target named is T1, OR5A2_variant 1 (Homo sapiens, UniProt Q8NGI9).
T1 construct: expressed in transfected cells; host or cells: HEK293T-RTP1A1/RTP2
T1 sequence (Q8NGI9 1-324): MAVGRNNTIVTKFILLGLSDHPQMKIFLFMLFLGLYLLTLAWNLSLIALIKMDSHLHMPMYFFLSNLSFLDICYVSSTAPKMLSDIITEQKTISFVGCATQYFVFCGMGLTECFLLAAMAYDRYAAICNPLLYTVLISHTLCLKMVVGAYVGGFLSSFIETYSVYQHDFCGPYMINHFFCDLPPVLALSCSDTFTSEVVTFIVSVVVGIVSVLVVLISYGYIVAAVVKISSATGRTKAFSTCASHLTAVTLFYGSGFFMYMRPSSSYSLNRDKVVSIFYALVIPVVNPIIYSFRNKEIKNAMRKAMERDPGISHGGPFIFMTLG
The assay is described as follows: Luciferase reporter concentration-response analysis on OR5A2_variant 1. The settings on record: CRE-luciferase; semi-logarithmic serial dilutions; empty vector pEFIBRHO as control. On the procedure:
(§1) HEK293T-RTP1A1/RTP2 cells were maintained in minimal essential medium (EMEM, Lonza) containing 10% fetal bovine serum (M10). These cells were generated by transfecting HEK293T with an expression vector containing the sequences of the chaperone proteins RTP1A1 and RTP2 and a resistance gene to puromycin, using Lipofectamine 2000.
(§2) Odorant molecules were diluted at a concentration of 1 mole/liter (M) into dimethyl sulfoxide (DMSO) to generate stock solutions.
(§3) For concentration-response analysis, serial dilutions of the tested molecules were prepared from stock solutions in EMEM plated into 96-well plates.
(§4) For the initial deorphanisation screening and dose-response analysis, a Luciferase-based gene reporter assay (Promega, Leiden, The Nederlands) was used. Briefly, cells were platted on Poly-D-lysine-coated 96-well and transfected with a plasmid containing the CRE-luciferase and a plasmid containing the olfactory receptor. Sixteen hours after transfection, the culture medium was replaced by serum-free EMEM containing the tested compounds at a determined concentration. After four hours of incubation at 37° C. degree, cells were lysed and processed for luminescence measurement. Luminescene emission was recorded. Results were expressed as luciferase activity (Relative […] Unit (RLU)) or as percentage of the response induced by 10 μM of the adenylate cyclase activator Forskolin. An empty plasmid is used as negative control.
(§5) 35 musk compounds from the four structurally different chemical groups previously described were tested in concentration-response analyses (Table 2). In each experiment, an empty vector was used as negative control (pEFIBRHO). […] Full results including the calculated EC50 are given in Table 2; “non active” represent negative experiments, no activation after testing.
Background: In a reporter assay the amount or activity of a reporter protein is the signal.

For assay [2], the target named is T2, OR11A1 (Homo sapiens, UniProt Q9GZK7).
T2 construct: expressed in transfected cells; host or cells: HEK293T-RTP1A1/RTP2
T2 sequence (Q9GZK7 1-315): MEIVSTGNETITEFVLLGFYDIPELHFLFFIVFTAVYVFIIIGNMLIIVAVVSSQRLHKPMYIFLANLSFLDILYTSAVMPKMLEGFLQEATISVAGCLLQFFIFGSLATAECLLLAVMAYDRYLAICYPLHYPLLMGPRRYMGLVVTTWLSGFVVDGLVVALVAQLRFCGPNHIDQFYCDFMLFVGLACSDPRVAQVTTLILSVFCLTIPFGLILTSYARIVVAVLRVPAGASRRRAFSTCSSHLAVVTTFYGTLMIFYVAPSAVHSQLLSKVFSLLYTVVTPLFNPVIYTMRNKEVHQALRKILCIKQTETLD
The assay is described as follows: Luciferase reporter concentration-response analysis on OR11A1. The note with it: CRE-luciferase; empty vector pEFIBRHO as control. On the procedure:
as §1, §2, §3, §4, §5
These compounds were tested in concentration-response analysis in luciferase assays, as described previously. In each experiment, an empty vector was used as negative control (pEFIBRHO).

Assay [3] deals with T3, chimeric OR5A2_variant 1 (Homo sapiens, UniProt Q8NGI9, F293L/H55R/I289L/M58T).
T3 construct: expressed in transfected cells; host or cells: HEK293T-RTP1A1/RTP2
T3 sequence (Q8NGI9 with tags, fused parts or gaps H55R/M58T/I289L/F293L): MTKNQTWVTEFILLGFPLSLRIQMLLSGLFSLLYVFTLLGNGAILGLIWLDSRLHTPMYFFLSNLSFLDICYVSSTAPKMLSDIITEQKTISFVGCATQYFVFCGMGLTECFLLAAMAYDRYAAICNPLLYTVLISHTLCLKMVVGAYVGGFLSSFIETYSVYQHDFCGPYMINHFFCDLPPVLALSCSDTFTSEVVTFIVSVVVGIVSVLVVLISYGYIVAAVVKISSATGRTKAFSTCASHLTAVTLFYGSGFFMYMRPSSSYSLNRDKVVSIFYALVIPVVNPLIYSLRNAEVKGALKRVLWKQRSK
Kind of assay: Luciferase reporter concentration-response analysis on chimeric OR5A2_variant 1. The note with it: CRE-luciferase, empty vector pEFIBRHO as control. On the procedure: as §1, §2, §3, §4
To test if the amino acids substitution could impact the musk sensitivity, and specificity and to validate the Krautwurst's model, luciferase assays were performed as described previously after transfection of the chimeric OR5A2_variant 1. Cells were treated with semi-logarithmic serial dilutions of musk compounds from the four structurally different groups described earlier.
In each experiment, an empty vector was used as negative control (pEFIBRHO).

In assay [4] the target is T4, OR5A1 (Homo sapiens, UniProt Q8NGJ0).
T4 construct: expressed in transfected cells; host or cells: HEK293T-RTP1A1/RTP2
T4 sequence (Q8NGJ0 1-315): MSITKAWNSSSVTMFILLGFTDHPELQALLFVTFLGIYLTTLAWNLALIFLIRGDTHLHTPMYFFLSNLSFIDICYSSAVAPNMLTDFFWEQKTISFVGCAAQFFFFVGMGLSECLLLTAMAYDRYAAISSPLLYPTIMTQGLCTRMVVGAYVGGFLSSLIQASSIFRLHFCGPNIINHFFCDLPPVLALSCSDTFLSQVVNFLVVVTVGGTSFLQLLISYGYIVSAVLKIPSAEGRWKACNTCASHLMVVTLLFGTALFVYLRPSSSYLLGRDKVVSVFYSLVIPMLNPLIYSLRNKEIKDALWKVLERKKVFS
The assay is described as follows: Luciferase reporter concentration-response analysis on OR5A1. The settings on record: CRE-luciferase; empty vector pEFIBRHO as control. The method, then: (§6) HEK293T-RTP1A1/RTP2 cells were maintained in minimal essential medium (EMEM, Lonza) containing 10% fetal bovine serum (M10). These cells were generated by transfecting HEK293T with an expression vector containing the sequences of the chaperone proteins RTP1A1 and RTP2 and a resistance gene to puromycin, using Lipofectamine 2000. The recombinant cell population, used in these experiments, was selected by adding 10 μg/ml of puromycin into the culture medium and subsequently subcloned (WO 2014/191047 A1).
as §2, §3
as §4, with “Briefly, cells were platted on Poly-D-lysine-coated 96-well and transfected with a plasmid containing the CRE-luciferase and a plasmid containing the olfactory receptor.” left out, “An empty plasmid is used as negative control.” left out

Assay [5] concerns the target T5, OR5AN1 (Homo sapiens, UniProt Q8NGI8, E89G).
T5 construct: expressed in transfected cells; host or cells: HEK293T-RTP1A1/RTP2
T5 sequence (Q8NGI8 1-311 E89G): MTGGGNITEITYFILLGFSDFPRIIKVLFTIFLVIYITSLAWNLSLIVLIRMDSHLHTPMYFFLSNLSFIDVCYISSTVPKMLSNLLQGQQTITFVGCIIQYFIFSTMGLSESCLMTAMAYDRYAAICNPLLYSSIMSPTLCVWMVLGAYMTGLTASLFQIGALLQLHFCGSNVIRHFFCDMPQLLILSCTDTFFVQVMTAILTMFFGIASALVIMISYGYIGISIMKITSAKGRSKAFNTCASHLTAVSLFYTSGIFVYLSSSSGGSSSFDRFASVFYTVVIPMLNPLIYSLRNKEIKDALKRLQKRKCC
Kind of assay: Luciferase reporter concentration-response analysis on OR5AN1. The settings on record: CRE-luciferase; empty vector pEFIBRHO as control. The method, then:
as §6, §2, §3, §4
In these analyses we also included ORs previously described as musk-specific receptors OR5AN1 (SEQ ID n° 7) (WO 2015/020158 A1, Shirasu et al. 2014 Neuron 81, 165-78, Sato-Akuhara N et al. 2016 J Neurosci. 36(16), 4482-91) and OR11A1 (SEQ ID n° 8) (WO 2016/201152 A1). […] Therefore, OR5A1 was included in the analyses. 35 musk compounds from the four structurally different chemical groups previously described were tested in concentration-response analyses (Table 2). In each experiment, an empty vector was used as negative control (pEFIBRHO). […] Full results including the calculated EC50 are given in Table 2; “non active” represent negative experiments, no activation after testing. […]

As for `CCC1(O)C2(C)CCC(C2)C1(C)C` (stereo not drawn) [2 ethyl-fenchol], in assay [1], the “activation of OR5A2 (OR5A2_variant 1), concentration-response” value is on record as “stimulated neither”. Further, the “activation of OR11A1, concentration-response” value in assay [2] is given as “able to activate OR11A1 only”. Moreover, the “activation of chimeric OR5A2_variant 1, concentration-response” value is reported as “not activated” in assay [3] and “not able to activate” in assay [3] (listed as ethyl-fenchol). Besides, the “activation of OR5A1, concentration-response” value in assay [4] is “able to activate OR11A1 only”. Moreover, the “activation of OR5AN1, concentration-response” value in assay [5] was “stimulated neither”.
For `CC(=O)/C=C/C1=C(C)CCCC1(C)C` [Beta-ionone], the “activation of OR5A2 (OR5A2_variant 1), concentration-response” value in assay [1] is “stimulated neither”. The “activation of OR11A1, concentration-response” value in assay [2] is recorded as “able to activate OR5A1 only”. The “activation of chimeric OR5A2_variant 1, concentration-response” value is given as “not able to activate” in assay [3] and “not activated” in assay [3] (listed as beta-ionone). Also, the “activation of OR5A1, concentration-response” value in assay [4] is “able to activate OR5A1 only”. In addition, in assay [5], the “activation of OR5AN1, concentration-response” value is reported as “stimulated neither”.

The record behind these values is patent US12461089B2, “Olfactory receptor involved in the perception of musk fragrance and the use thereof” (ChemoSensoryX Biosciences SA, priority 2017, dated 2025).
